Patent publication US11365201B2, “Chlorotonil derivatives” (HELMHOLTZ-ZENTRUM FÜR INFEKTIONSFORSCHUNG GMBH, priority 2017, dated 2022)
Values after ≈ are worked out from the molar mass of the structure shown.

Columns and labels:
[1] = tested on: mature stage (stage IV-V) gametocytes; settings: read-out: mean IC50, gametocytocidal activity, ATP bioluminescence; cited from earlier work
[2] = Determination of water solubility, Method 1 (suspension in tap water, weighing); type: physicochemical; settings: thermodynamic from solid, room temperature, 18 h stirring, triplicates
Procedure: (§1) Determination of Water Solubility
10 mg of compound was suspended in 1 L of tap water and the solution was stirred at room temperature for 18 h. Upon completion, solution was sonicated for another hour, centrifuged and the supernatant was separated from the precipitate. Both aliquots were lyophilized, and weighed. This procedure was performed in triplicates.

[3] = tested on: clinical isolates from Gabon; settings: read-out: median IC50, clinical isolates from Gabon; in vitro; cited from earlier work
[4] = mice; cited from earlier work
[5] = tested on: P. falciparum 3D7 (sensitive strain); assay: Antiplasmodial in vitro drug sensitivity assay (HRP2-ELISA); type: cell-based; settings: Plasmodium falciparum, 3D7, read-out: IC50 against P. falciparum 3D7
Procedure: (§2) Two laboratory strains of P. falciparum, the chloroquine sensitive 3D7 and the multi-resistant Dd2 were kept in continuous culture as previously described (Trager and Jensen 1976). In brief, parasites were kept in complete culture medium (RPMI 1640, 25 mM HEPES, 2 mM L-glutamine, 50 μg/ml gentamicin and 0.5% w/v AlbuMAX) at 37° C., 5% CO2 and 5% oxygen at 5% hematocrit with daily change of medium. Synchronization was performed with sorbitol twice a week (Lambros and Vanderberg 1979).
(§3) In Vitro Drug Sensitivity Assay
(§4) All compounds were dissolved in DMSO at stock dilutions between 25 and 100 mM; the reference drug chloroquine diphosphate (MW: 515.86) was diluted in distilled water and DMSO, respectively. […] Antiplasmodial activity of the different compounds was tested in a drug sensitivity assay against the two laboratory strains using the histidine-rich protein 2 (HRP2) assay as described previously (Noedl 2005). In brief: 96 well plates were pre-coated with the different compounds in a threefold dilution before ring stage parasites were added in complete culture medium at a hematocrit of 1.5% and a parasitemia of 0.05% in a total volume of 225 μl per well. After three days of incubation plates were frozen until analyzed by HRP2-ELISA. All compounds were evaluated in duplicate in at least two independent experiments.

[6] = tested on: P. falciparum Dd2 (resistant strain); assay: as above; type: cell-based; settings: Plasmodium falciparum, DD2, read-out: IC50 against P. falciparum Dd2
Procedure: as §2, §3, §4

[7] = tested on: E. coli TolC (+PMBN); assay: Antimicrobial assay, MIC by microbroth dilution with PMBN; type: cell-based; settings: 16 h, 3 μg/mL polymyxin B nonapeptide (PMBN) added
Procedure: Bacterial strains used in susceptibility assays (minimum inhibitory concentrations, MIC) were either part of our internal strain collection or were purchased form the German Collection of Microorganisms and Cell Cultures (DSMZ). All compounds were prepared as DMSO stocks and MIC values were determined in standard microbroth dilution assays. Overnight cultures of bacteria were diluted in cation-adjusted Muller-Hinton broth (BBL™, BD) and were adjusted to approximately 10^5 cfu/mL. For the E. coli culture, 3 μg/mL of polymyxin B nonapeptide (PMBN) was added to increase permeability of the outer membrane as chlorotonils were previously shown to not penetrate into Gram-negative cells. Bacteria were grown in the presence of the derivatives in serial dilution for 16 h at their optimal growth temperature. MIC values were determined according to CLSI guidelines (antibiotic concentration at which no visible bacterial growth is observed).

[8] = tested on: Plasmodium falciparum; settings: cited from earlier work
[9] = tested on: chloroquine-resistant laboratory strains of Plasmodium falciparum; settings: read-out: mean IC50, chloroquine-resistant laboratory strains of Plasmodium falciparum; in vitro, first screening; cited from earlier work
[10] = tested on: chloroquine-sensitive laboratory strains of Plasmodium falciparum; settings: read-out: mean IC50, chloroquine-sensitive laboratory strains of Plasmodium falciparum; in vitro, first screening; cited from earlier work
[11] = Determination of water solubility, Method 2 (HPLC-MS standard curve, saturated solution in water); type: physicochemical; settings: thermodynamic from solid; saturated solution in water, HPLC-MS standard curve
Procedure: as §1
A standard curve with 10 calibration points of the compound of interest is plotted using HPLC-MS and serial dilution. The dilutions and stock solutions were prepared in THF as a solvent. Following the measurements, a saturated solution in water of the compound in study was also measured. Upon plotting the standard curve using the peak areas of the MS peaks, the water samples were plotted along the curve and the solubility was then calculated.

[12] = tested on: L-929 (murine fibroblasts); assay: Cytotoxicity assay (MTT, 5 d); type: cell-based; settings: Mus musculus, L929, 120 h
Procedure: Cytotoxicity Assay The murine fibroblast cell line L-929 was obtained from the German Collection of Microorganisms and Cell Cultures (DSMZ) and maintained under conditions recommended by the depositor. Cells were seeded at 6×10^3 cells per well of sterile 96-well plates in 180 μL complete medium and treated with the compounds in serial dilution after 2 h of equilibration. After 5 d, viability was assessed by the MTT method. After 1.5 h incubation with 0.5 mg/mL MTT reagent, cells were washed with PBS and 100 μL of 2-propanol/10 N HCl (250:1) was added. The absorbance at 570 nm was determined on a microplate reader and cell viability was expressed as percentage relative to the respective solvent control. Half-inhibitory concentrations (IC50) were determined by sigmoidal curve fitting.

CC1=C[C@@H](C)C2C3C(=O)C(Cl)(Cl)C(=O)[C@H](C)C(=O)O[C@@H](C)/C=C/C=C\[C@@H](C)[C@@H]3C=C[C@@H]2C1 (stereo partly drawn) [Chlorotonil A (ChA), Chlorotonil A]
IC50 [1]: 29.6 nM | solubility at 18 h [2]: 3 µg/mL (≈ 6.26 µM) | IC50 [3]: 15.2 nM | oral availability [4]: orally available | IC50 [5]: 18.7 nM | IC50 [6]: 20.7 nM | MIC E. coli TolC (+PMBN) [7]: 0.4 µg/mL | Development of resistant parasites in vitro by drug pressure [8]: not possible to develop resistant parasites in vitro by drug pressure | IC50 [9]: 18 nM | IC50 [10]: 9 nM | solubility [11]: 1.8 µg/mL (≈ 3.75 µM) | IC50 [12]: 1100 nM
